# Laboratory results from article PMC12459184, “Design, synthesis, and bioevaluation of pyrazole-containing tubulin polymerisation inhibitors based on conformational constraint strategy” (Journal of Enzyme Inhibition and Medicinal Chemistry, 2025).
# Like-named read-outs stand apart in the source and are kept apart here.
# How the values were obtained:
# Bax = assay: Western blot assay, Bax; assay type: cell-based, human; conditions: PC-3 cells
# Experimental: The expression of cell apoptosis-related proteins (Bax, Bcl-2, and cleaved caspase-9) after treatment of 4k and 5a was also measured by western blot assay.
# PC-3 cells in logarithmic phase were harvested and seeded onto culture plates, and were cultured for 24 h. […] The proteins of PC-3 cells were extracted by RIPA buffer containing 1% PMSF (Beyotime Biotechnology, China). The protein concentration was measured by BCA Assay Kit (SEVEN Biotech, China). Equal amounts and concentration of protein were diluted in 5× loading buffer (Beyotime, China) and denatured by boiled for 5 min. Protein samples were separated on 12.5% SDS-PAGE gels (EpiZyme, China) and transferred to PVDF membranes (Millipore Corporation, Billerica, MA, USA). The membranes were blocked in QuickBlockTM Block Buffer (SEVEN Biotech, China) for 10 min at room temperature. Then the membranes were incubated with the primary antibodies overnight at 4 °C, including Cyclin B1 (1:2000, Proteintech, China), CDK1 (1:5000, Proteintech, China), BAX (1:5000, Proteintech, China), Bcl2 (1:1000, Proteintech, China), Caspase 9/p35/p10 (1:1000, Proteintech, China), and β-actin (1:20 000, Proteintech, China). […] The protein signals were detected by using chemiluminescent reagents kit (NCM Biotech, China) and visualised with ChemiDocImaging System (Tanon 5200, China). Protein expressions was quantified by using Fiji/ImageJ software.
# PC-3 cell line = assay: MTT cell viability after 24 h; assay type: cell-based; conditions: Homo sapiens, read-out: cell viability
# Experimental: An MTT assay was made on PC-3 cell line to test the cell viability after treated with different concentrations of compounds 4k and 5a after 24 h which was the same period as immunofluorescence assay.
# tubulin = assay: In vitro tubulin polymerisation assay; assay type: biochemical
# Experimental: To investigate the effect of compounds 4k and 5a on microtubule system, their tubulin polymerisation inhibition activities were evaluated using in vitro tubulin polymerisation assay.
# The BK001 kit used in this test was purchased from Cytoskeleton Inc. (Denver, CO, USA). […] Then the mixtures were transferred to 37 °C and tubulin assembly was monitored (excitation wavelength: 360 nm; emission wavelength: 420 nm) at 1 min intervals for 90 min by a microplate reader.
compound,measurement,setting,value
"COc1cc(C(=O)c2nn(-c3ccc(N)cc3)cc2N)cc(OC)c1OC [4k, (4-amino-1–(4-aminophenyl)-1H-pyrazol-3-yl)(3,4,5-trimethoxyphenyl)methanone]",expression of Bax,"Bax; western blot, 20, 40 nM",significantly increased
same,viability at 0.00051 µM,"PC-3 cell line; PC-3, MTT, 24 h, 0.51 nM",91.6%
same,viability at 1.111 µM,"PC-3 cell line; PC-3, MTT, 24 h, 1111 nM",41.6%
same,effect on tubulin polymerisation (fluorescence intensity),tubulin; 5 μM and 10 μM,inhibition of tubulin polymerisation
same,tubulin polymerisation inhibitory potency compared with colchicine (3 μM),tubulin; 5 μM and 10 μM,higher potency than colchicine
"COc1cc(C2=NCC(=O)Nc3cn(-c4ccccc4)nc32)cc(OC)c1OC [5a, 2-Phenyl-8–(3,4,5-trimethoxyphenyl)-2,6-dihydropyrazolo[4,3-e][1,4]diazepin-5(4H)-one]",expression of Bax,"Bax; western blot, 10, 20, 40 nM",significantly increased
same,viability at 0.00051 µM,"PC-3 cell line; PC-3, 24 h",76.6%
same,viability at 1.111 µM,"PC-3 cell line; PC-3, 24 h",39.6%
same,effect on tubulin polymerisation (fluorescence intensity),tubulin; 10 μM and 20 μM,inhibition of tubulin polymerisation
same,tubulin polymerisation inhibitory potency compared with colchicine (3 μM),tubulin; 20 μM,superior inhibitory potency compared to colchicine
